Measured values taken from ChEMBL document CHEMBL4507280 (2021).

Assays:
[1] = tested on: Epidermal growth factor receptor (Homo sapiens), P00533 [T790M]; conditions: Compound concentration 1000.0 nM
[2] = tested on: Epidermal growth factor receptor (Homo sapiens), P00533 [G719C]; conditions: Compound concentration 1000.0 nM
[3] = target: Epidermal growth factor receptor (Homo sapiens) (UniProt P00533); conditions: Compound concentration 1000.0 nM
[4] = target: Mitogen-activated protein kinase 3 (Homo sapiens) (UniProt P27361); conditions: Compound concentration 1000.0 nM
[5] = target: Macrophage colony-stimulating factor 1 receptor (Homo sapiens) (UniProt P07333); conditions: Compound concentration 1000.0 nM
Macrophage colony-stimulating factor 1 receptor (Homo sapiens), sequence (P07333 whole entry): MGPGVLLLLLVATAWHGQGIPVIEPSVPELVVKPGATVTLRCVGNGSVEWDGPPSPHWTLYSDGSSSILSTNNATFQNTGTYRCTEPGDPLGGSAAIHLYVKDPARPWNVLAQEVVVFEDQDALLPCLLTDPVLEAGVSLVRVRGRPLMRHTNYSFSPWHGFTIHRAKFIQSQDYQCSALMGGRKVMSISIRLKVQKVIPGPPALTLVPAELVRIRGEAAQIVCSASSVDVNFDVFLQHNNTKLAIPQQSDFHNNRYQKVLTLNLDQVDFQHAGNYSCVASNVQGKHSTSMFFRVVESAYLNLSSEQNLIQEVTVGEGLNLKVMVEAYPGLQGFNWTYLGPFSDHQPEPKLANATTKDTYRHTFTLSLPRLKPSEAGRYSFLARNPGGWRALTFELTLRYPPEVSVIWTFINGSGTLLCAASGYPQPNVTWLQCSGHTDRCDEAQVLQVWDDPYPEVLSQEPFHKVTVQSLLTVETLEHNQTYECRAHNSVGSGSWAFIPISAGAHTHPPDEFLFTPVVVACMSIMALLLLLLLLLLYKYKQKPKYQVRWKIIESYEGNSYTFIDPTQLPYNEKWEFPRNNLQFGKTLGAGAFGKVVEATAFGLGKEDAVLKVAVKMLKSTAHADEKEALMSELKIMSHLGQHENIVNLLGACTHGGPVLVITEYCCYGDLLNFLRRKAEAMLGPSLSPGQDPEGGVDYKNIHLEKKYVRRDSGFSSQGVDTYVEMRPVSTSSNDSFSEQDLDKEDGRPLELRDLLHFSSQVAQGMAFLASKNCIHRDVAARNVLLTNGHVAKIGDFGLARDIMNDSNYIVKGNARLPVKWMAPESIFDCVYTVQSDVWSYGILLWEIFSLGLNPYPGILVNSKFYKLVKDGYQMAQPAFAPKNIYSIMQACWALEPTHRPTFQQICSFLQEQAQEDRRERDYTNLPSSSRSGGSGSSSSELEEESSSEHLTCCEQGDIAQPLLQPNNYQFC

[6] = tested on: Leucine-rich repeat serine/threonine-protein kinase 2 (Homo sapiens), Q5S007 [G2019S]; conditions: Compound concentration 1000.0 nM
[7] = target: Cyclin-dependent kinase 2 homolog (Plasmodium falciparum (isolate 3D7)) (UniProt P61075); conditions: Compound concentration 1000.0 nM
[8] = target: Tyrosine-protein kinase Fer (Homo sapiens) (UniProt P16591); conditions: Compound concentration 1000.0 nM
[9] = target: High affinity nerve growth factor receptor (Homo sapiens) (UniProt P04629); conditions: Compound concentration 1000.0 nM
[10] = target: Myosin light chain kinase, smooth muscle (Homo sapiens) (UniProt Q15746); conditions: Compound concentration 1000.0 nM
[11] = target: Serine/threonine-protein kinase 17A (Homo sapiens) (UniProt Q9UEE5); conditions: Compound concentration 1000.0 nM
[12] = tested on: Epidermal growth factor receptor (Homo sapiens), P00533 [UNDEFINED MUTATION]; conditions: Compound concentration 1000.0 nM
[13] = target: Ribosomal protein S6 kinase alpha-6 (Homo sapiens) (UniProt Q9UK32); conditions: Compound concentration 1000.0 nM
[14] = target: Mitogen-activated protein kinase 1 (Homo sapiens) (UniProt P28482); conditions: Compound concentration 1000.0 nM
[15] = target: Serine/threonine-protein kinase OSR1 (Homo sapiens) (UniProt O95747); conditions: Compound concentration 1000.0 nM
[16] = target: Casein kinase I isoform alpha-like (Homo sapiens) (UniProt Q8N752); conditions: Compound concentration 1000.0 nM
[17] = target: AP2-associated protein kinase 1 (Homo sapiens) (UniProt Q2M2I8); conditions: Compound concentration 1000.0 nM
[18] = target: Rhodopsin kinase GRK1 (Homo sapiens) (UniProt Q15835); conditions: Compound concentration 1000.0 nM
Rhodopsin kinase GRK1 (Homo sapiens), sequence (Q15835 whole entry): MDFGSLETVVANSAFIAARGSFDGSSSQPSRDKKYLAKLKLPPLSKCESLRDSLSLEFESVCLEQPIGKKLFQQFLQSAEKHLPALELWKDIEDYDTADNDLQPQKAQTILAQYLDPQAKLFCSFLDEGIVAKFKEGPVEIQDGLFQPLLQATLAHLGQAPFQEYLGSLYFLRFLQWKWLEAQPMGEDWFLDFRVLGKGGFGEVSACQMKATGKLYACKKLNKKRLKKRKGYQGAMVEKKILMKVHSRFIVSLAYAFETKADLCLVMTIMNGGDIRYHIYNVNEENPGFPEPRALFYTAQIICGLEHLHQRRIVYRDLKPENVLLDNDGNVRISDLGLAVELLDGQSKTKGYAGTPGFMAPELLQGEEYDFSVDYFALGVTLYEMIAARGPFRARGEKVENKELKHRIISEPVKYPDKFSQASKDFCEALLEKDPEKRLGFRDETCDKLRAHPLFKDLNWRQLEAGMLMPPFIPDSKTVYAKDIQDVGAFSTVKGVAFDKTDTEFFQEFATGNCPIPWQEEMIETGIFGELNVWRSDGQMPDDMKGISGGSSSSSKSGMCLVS

[19] = target: Mitogen-activated protein kinase 11 (Homo sapiens) (UniProt Q15759); conditions: Compound concentration 1000.0 nM
[20] = target: Testis-specific serine/threonine-protein kinase 3 (Homo sapiens) (UniProt Q96PN8); conditions: Compound concentration 1000.0 nM
[21] = target: Serine/threonine-protein kinase pim-1 (Homo sapiens) (UniProt P11309); conditions: Compound concentration 1000.0 nM
[22] = target: cAMP-dependent protein kinase catalytic subunit beta (Homo sapiens) (UniProt P22694); conditions: Compound concentration 1000.0 nM
[23] = target: Leucine-rich repeat serine/threonine-protein kinase 2 (Homo sapiens) (UniProt Q5S007); conditions: Compound concentration 1000.0 nM
[24] = target: 5'-AMP-activated protein kinase catalytic subunit alpha-1 (Homo sapiens) (UniProt Q13131); conditions: Compound concentration 1000.0 nM
[25] = target: SRSF protein kinase 2 (Homo sapiens) (UniProt P78362); conditions: Compound concentration 1000.0 nM
[26] = target: Mitogen-activated protein kinase kinase kinase 12 (Homo sapiens) (UniProt Q12852); conditions: Compound concentration 1000.0 nM
[27] = target: Tyrosine-protein kinase ITK/TSK (Homo sapiens) (UniProt Q08881); conditions: Compound concentration 1000.0 nM
[28] = target: Mu-type opioid receptor (Homo sapiens) (UniProt P35372); conditions: Compound concentration 10.0 uM
[29] = target: Sigma non-opioid intracellular receptor 1 (Homo sapiens) (UniProt Q99720); conditions: Compound concentration 10.0 uM
Sigma non-opioid intracellular receptor 1 (Homo sapiens), sequence (Q99720 whole entry): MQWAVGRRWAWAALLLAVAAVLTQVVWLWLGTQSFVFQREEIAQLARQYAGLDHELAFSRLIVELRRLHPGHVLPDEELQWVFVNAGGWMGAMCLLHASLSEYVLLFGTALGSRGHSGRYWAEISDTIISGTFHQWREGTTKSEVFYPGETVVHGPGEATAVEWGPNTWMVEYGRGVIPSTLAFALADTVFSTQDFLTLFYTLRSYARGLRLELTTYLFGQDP

[30] = target: Vascular endothelial growth factor receptor 2 (Homo sapiens) (UniProt P35968); conditions: Compound concentration 1000.0 nM
[31] = target: Wee1-like protein kinase 2 (Homo sapiens) (UniProt P0C1S8); conditions: Compound concentration 1000.0 nM
Wee1-like protein kinase 2 (Homo sapiens), sequence (P0C1S8 whole entry, looked up): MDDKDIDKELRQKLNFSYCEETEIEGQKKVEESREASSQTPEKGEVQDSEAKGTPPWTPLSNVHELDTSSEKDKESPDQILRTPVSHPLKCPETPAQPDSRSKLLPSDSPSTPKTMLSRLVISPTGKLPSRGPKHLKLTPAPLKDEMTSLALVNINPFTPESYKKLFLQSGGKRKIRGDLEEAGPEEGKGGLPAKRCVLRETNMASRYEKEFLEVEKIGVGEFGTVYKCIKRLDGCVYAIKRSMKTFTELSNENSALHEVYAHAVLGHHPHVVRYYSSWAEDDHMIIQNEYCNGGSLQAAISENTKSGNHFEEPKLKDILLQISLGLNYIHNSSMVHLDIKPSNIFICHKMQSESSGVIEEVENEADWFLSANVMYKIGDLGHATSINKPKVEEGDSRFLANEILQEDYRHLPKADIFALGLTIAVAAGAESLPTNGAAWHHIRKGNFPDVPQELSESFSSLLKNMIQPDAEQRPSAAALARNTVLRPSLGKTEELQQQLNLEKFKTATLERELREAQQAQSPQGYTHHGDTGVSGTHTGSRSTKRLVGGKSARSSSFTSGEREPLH

[32] = target: 1-phosphatidylinositol 3-phosphate 5-kinase (Homo sapiens) (UniProt Q9Y2I7); conditions: Compound concentration 1000.0 nM
1-phosphatidylinositol 3-phosphate 5-kinase (Homo sapiens), sequence (Q9Y2I7 whole entry): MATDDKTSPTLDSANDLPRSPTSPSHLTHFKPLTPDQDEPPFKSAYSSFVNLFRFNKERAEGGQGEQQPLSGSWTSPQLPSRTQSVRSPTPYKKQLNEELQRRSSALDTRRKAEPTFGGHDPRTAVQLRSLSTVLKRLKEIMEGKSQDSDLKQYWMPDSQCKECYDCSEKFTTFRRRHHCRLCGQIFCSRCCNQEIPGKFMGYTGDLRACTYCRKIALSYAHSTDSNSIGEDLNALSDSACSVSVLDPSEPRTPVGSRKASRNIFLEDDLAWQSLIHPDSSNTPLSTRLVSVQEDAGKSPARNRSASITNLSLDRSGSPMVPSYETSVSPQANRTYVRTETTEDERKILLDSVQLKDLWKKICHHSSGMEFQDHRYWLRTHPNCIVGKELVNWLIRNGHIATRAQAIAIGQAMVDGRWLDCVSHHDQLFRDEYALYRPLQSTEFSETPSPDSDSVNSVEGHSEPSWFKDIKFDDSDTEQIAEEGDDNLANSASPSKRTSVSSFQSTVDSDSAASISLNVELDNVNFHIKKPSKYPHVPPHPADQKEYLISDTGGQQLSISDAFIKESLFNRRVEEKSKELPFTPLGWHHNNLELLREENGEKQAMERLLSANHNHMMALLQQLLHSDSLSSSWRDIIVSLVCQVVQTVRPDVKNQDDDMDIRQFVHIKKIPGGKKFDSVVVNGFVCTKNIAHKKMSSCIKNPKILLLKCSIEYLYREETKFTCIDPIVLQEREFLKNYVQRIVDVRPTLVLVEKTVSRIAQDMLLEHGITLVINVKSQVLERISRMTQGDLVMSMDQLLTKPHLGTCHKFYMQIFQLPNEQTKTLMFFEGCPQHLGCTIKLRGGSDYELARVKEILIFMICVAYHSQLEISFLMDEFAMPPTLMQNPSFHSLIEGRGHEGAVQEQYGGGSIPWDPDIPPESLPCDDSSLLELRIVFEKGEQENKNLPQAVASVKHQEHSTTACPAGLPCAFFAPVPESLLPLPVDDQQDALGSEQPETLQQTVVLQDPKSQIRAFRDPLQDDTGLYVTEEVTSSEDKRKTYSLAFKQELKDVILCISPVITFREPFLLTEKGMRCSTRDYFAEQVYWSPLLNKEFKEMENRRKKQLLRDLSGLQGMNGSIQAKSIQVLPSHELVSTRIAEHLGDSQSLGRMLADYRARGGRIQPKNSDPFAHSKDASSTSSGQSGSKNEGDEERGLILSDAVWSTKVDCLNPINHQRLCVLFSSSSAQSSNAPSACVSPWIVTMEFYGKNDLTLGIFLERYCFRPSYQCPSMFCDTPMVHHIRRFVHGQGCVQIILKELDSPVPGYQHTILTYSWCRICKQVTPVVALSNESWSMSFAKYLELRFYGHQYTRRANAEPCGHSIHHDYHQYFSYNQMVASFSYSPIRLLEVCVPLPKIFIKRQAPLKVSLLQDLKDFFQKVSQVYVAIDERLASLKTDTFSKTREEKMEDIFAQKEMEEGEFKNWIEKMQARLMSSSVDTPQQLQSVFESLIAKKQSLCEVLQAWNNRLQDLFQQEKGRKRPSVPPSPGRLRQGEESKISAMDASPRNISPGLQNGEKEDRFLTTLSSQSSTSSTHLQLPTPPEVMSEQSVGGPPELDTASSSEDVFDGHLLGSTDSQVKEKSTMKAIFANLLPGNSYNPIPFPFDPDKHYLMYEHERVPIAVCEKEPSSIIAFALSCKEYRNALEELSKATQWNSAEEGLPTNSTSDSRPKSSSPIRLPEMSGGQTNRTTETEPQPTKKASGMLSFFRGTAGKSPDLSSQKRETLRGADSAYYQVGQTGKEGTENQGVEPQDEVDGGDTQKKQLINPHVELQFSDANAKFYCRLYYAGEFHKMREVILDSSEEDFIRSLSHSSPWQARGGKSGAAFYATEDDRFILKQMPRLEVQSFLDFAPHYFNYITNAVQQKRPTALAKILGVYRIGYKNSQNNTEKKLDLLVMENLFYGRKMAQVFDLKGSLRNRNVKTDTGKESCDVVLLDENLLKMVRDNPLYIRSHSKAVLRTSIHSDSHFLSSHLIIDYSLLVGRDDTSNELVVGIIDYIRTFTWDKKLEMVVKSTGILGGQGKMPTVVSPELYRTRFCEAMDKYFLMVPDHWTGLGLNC

[33] = target: Atypical kinase COQ8A, mitochondrial (Homo sapiens) (UniProt Q8NI60); conditions: Compound concentration 1000.0 nM
[34] = tested on: Phosphatidylinositol 4,5-bisphosphate 3-kinase catalytic subunit alpha isoform (Homo sapiens), P42336 [H1047Y]; conditions: Compound concentration 1000.0 nM
[35] = target: Interleukin-1 receptor-associated kinase 1 (Homo sapiens) (UniProt P51617); conditions: Compound concentration 1000.0 nM
[36] = target: Mitogen-activated protein kinase kinase kinase 2 (Homo sapiens) (UniProt Q9Y2U5); conditions: Compound concentration 1000.0 nM
[37] = target: Mitogen-activated protein kinase 14 (Homo sapiens) (UniProt Q16539); conditions: Compound concentration 1000.0 nM
[38] = target: Ribosomal protein S6 kinase alpha-3 (Homo sapiens) (UniProt P51812); conditions: Compound concentration 1000.0 nM
[39] = target: Tyrosine-protein kinase Srms (Homo sapiens) (UniProt Q9H3Y6); conditions: Compound concentration 1000.0 nM
[40] = target: 5-hydroxytryptamine receptor 2A (Homo sapiens) (UniProt P28223); conditions: Compound concentration 10.0 uM
5-hydroxytryptamine receptor 2A (Homo sapiens), sequence (P28223 whole entry): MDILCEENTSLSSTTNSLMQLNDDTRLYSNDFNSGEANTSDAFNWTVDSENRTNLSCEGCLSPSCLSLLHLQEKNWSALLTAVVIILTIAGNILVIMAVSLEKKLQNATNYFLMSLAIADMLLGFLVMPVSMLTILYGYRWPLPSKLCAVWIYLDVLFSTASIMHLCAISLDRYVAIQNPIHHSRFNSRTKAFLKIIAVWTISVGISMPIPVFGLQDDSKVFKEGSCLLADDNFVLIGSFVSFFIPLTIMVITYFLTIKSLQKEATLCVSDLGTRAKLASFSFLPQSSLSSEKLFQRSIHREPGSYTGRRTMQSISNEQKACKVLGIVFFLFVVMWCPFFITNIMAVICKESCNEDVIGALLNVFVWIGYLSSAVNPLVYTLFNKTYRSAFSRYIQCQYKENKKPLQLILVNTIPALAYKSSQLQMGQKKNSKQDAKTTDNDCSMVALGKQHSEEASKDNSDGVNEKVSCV

[41] = target: Cytoplasmic tyrosine-protein kinase BMX (Homo sapiens) (UniProt P51813); conditions: Compound concentration 1000.0 nM
[42] = target: Calcium/calmodulin-dependent protein kinase kinase 2 (Homo sapiens) (UniProt Q96RR4); conditions: Compound concentration 1000.0 nM
[43] = target: 5-hydroxytryptamine receptor 6 (Homo sapiens) (UniProt P50406); conditions: Compound concentration 10.0 uM
[44] = tested on: Receptor-type tyrosine-protein kinase FLT3 (Homo sapiens), P36888 [D835H]; conditions: Compound concentration 1000.0 nM

CCC(=O)N[C@@H]1CC[C@H](C(=O)N(C)c2ccc(-c3nc4ccccc4o3)cc2)C1 [BI 99990]
inactive: residual activity [1] 96% | residual activity [2] 100% | residual activity [3] 100% | residual activity [4] 100% | residual activity [5] 88% | residual activity [6] 100% | residual activity [7] 100% | residual activity [8] 99% | residual activity [9] 100% | residual activity [10] 62% | residual activity [11] 100% | residual activity [12] 100% | residual activity [13] 100% | residual activity [14] 88% | residual activity [15] 100% | residual activity [16] 100% | residual activity [17] 100% | residual activity [18] 76% | residual activity [19] 83% | residual activity [20] 97% | residual activity [21] 100% | residual activity [22] 100% | residual activity [23] 100% | residual activity [24] 91% | residual activity [25] 100% | residual activity [26] 100% | residual activity [27] 100% | inhibition [28] 14.1% | inhibition [29] 38.3% | residual activity [30] 77% | residual activity [31] 100% | residual activity [32] 93% | residual activity [33] 99% | residual activity [34] 100% | residual activity [35] 100% | residual activity [36] 100% | residual activity [37] 95% | residual activity [38] 91% | residual activity [39] 84% | inhibition [40] -9.08% | residual activity [41] 98% | residual activity [42] 100% | inhibition [43] 10.1% | residual activity [44] 100%

CCC(=O)N[C@H]1CC[C@@H](C(=O)N(C)c2ccc(-c3nc4ccccc4o3)cc2)C1 [BI 99179]
inactive: residual activity [1] 87% | residual activity [2] 100% | residual activity [3] 100% | residual activity [4] 100% | residual activity [5] 93% | residual activity [6] 100% | residual activity [7] 80% | residual activity [8] 90% | residual activity [9] 75% | residual activity [10] 69% | residual activity [11] 91% | residual activity [12] 97% | residual activity [13] 92% | residual activity [14] 76% | residual activity [15] 83% | residual activity [16] 100% | residual activity [17] 100% | residual activity [18] 77% | residual activity [19] 82% | residual activity [20] 100% | residual activity [21] 100% | residual activity [22] 100% | residual activity [23] 71% | residual activity [24] 99% | residual activity [25] 61% | residual activity [26] 100% | residual activity [27] 100% | inhibition [28] 10.3% | inhibition [29] 9.78% | residual activity [30] 75% | residual activity [31] 96% | residual activity [32] 94% | residual activity [33] 100% | residual activity [34] 97% | residual activity [35] 83% | residual activity [36] 87% | residual activity [37] 100% | residual activity [38] 87% | residual activity [39] 89% | inhibition [40] 2.34% | residual activity [41] 100% | residual activity [42] 91% | inhibition [43] 3.86% | residual activity [44] 95%
